Data from patent US6008356A, “Pharmaceutically available protoberberine salts derivatives, and protoberberine salts derivatives, and protoberberine derivatives and salts thereof” (priority 1998, dated 1999).
Counter-ions that a name gives are not always drawn.

Experiments:
[1] = tested on: Gram-negative or Gram-positive bacteria, such as Staphylococcus aureus, Staphylococcus hemolyticus, Salmonella typhosa, Shigella dysenteriae, Shigella …; conditions: cited from earlier work
[2] = tested on: fungi, such as Alternaria sp., Aspergillus flavus, Aspergdlus fumigatus, Candida albicans, Curvularia sp., Drechslera sp., Fusarium sp., Mucor sp., Penicillium …; conditions: Mahajan et al. 1982; cited from earlier work
Candida albicans = conditions: oral, 350-700 mg/kg; Mirska et al. 1972; cited from earlier work
human = conditions: may cause harmful or lethal effect on human in case of being dosed excessively; cited from earlier work
C. albicans ATCC 10231 = assay: MIC; assay type: cell-based; conditions: Candida albicans, ATCC10231; C. albicans ATCC 10231; read-out: MIC
C. albicans ATCC 28838 = assay: MIC; assay type: cell-based, Candida albicans; conditions: Candida albicans, ATCC28838; C. albicans ATCC 28838; read-out: MIC
C. albicans ATCC 11651 = assay: MIC; assay type: cell-based, Candida albicans; conditions: Candida albicans, ATCC11651; C. albicans ATCC 11651; read-out: MIC
C. albicans KCTC 1940 = assay: MIC; assay type: cell-based, Candida albicans; conditions: Candida albicans, KCTC1940; C. albicans KCTC 1940; read-out: MIC
C. albicans U.K. = assay: MIC; assay type: cell-based; conditions: Candida albicans; C. albicans U.K.; read-out: MIC
C. albicans OY 019 = assay: MIC; assay type: cell-based, Candida albicans; conditions: Candida albicans, OY019; C. albicans OY 019; read-out: MIC
C. albicans OY 003 = assay: MIC; assay type: cell-based, Candida albicans; conditions: Candida albicans, OY003; C. albicans OY 003; read-out: MIC
C. albicans IFO 1385 = assay: MIC; assay type: cell-based, Candida albicans; conditions: Candida albicans, IFO1385; C. albicans IFO 1385; read-out: MIC
C. parapsilosis = assay: MIC; assay type: cell-based; conditions: Lodderomyces parapsilosis; C. parapsilosis; read-out: MIC
C. glabrata = assay: MIC; assay type: cell-based; conditions: Nakaseomyces glabratus; C. glabrata; read-out: MIC
C. glulliermendi = assay: MIC; assay type: cell-based; conditions: C. glulliermendi; read-out: MIC
C. krusei = assay: MIC; assay type: cell-based; conditions: Pichia kudriavzevii; C. krusei; read-out: MIC
E. floccosum = assay: MIC; assay type: cell-based, Epidermophyton floccosum; conditions: Epidermophyton floccosum; E. floccosum; read-out: MIC
Epidermophyton floccosum = assay: Antifungal efficacy of creamy formulation against local fungal skin infection; assay type: in vivo, mouse (SKH/1, hairless, male); conditions: 0.5% cream, topical
Method: Specific pathogen free SKH/1 male mouse(Hairless) of which weight is 30-35 g and age is 5 weeks, was reared with sterilized water and feed for 12 night/day in the condition of 21-23° C. and of 50% relative humidity. Five mice were allocated by each group. After skin infection, each mouse was taken in separate cage. The strain of microorganism for infection(Epidermophyton floccosum) was cultivated on a flat medium of SDA(Sabouraud Dextrose Agar) for 5-7 days and after confirmation of macrocomidia, 3 ml of RPMI (Rosewell Park Memorial Institute) 1640 media per each flat medium was added thereto and then scraped well using loop to remove hyphae from media. The floating liquid was suspended briefly and then diluted with RPMI 1640 media to adjust the concentration of hyphae to 2×10^6 CFU/ml. Mouse was anesthetized and marked on back site(lumbosacral area) in a shape of circle of which diameter is 1.5 cm. Then, the inner part of marked skin was scratched with sand paper. The scratched part was covered with a filter paper to preserve inoculated microorganism for a long time and thereby stimulating the skin continuously. 0.2 ml of fungus solution of which concentration is adjusted as described above, was inoculated between the skin and filter paper. 5 Days after the inoculation, the filter paper was removed and the infection of skin was examined. The test formulations, 0.5% creamy formulations of the compounds Nos. 62 and 85, 1.0% creamy formulation of Terbinafine(Lamisile cream) and a placebo was applied on the infected areas in a same amount once a day for 5 days. The clinical evaluation on the change of the infected area in 5 days after the inoculation was performed and expressed numerically from 0 to 4. The daily change of the infected area was checked every day. The result of each group was compared with each other.
1: Mild erythema or small number of skin eruption
2: Well-demarcated erythema with scales or mild skin eruption of infected area
3: Wide area of marked skin eruption, scales, swelling or severe skin eruption with partial swelling and scales
4: The same as those of control, or severe skin eruption in entire lesion
The result was calculated as follows;
T: Average score of clinical evaluation in drug treated area
K: Average score of clinical evaluation in placebo control group
Moreover, the antifungal efficacies of the 0.5% creamy formulation of the compounds Nos. 29, 35, 60, 62, 63 and 85, and 1% creamy formulation of Terbinafme (Lamisil cream), which are measured by applying the above formulations on the skin infected with Epidermophyton floccosum of mouse which is the standard animal for the test of local fungal skin infection, i.e, Specific Pathogen Free SKH/1, are described in the following Table 4.

fungal infection of foot = assay: 0.5% creamy formulation applied on male patients with fungal infection of foot; assay type: in vivo, human (male patients); conditions: 0.5% cream once a day for five days
Description: The above 0.5% creamy formulation of the compound No. 62 was applied on infected area of 10 male patients with fungal infection of foot, in a proper amount once a day for five days.

acute oral toxicity = conditions: rat, in vivo, po, rats
Method: (§1) Meanwhile, the toxicity test of the compound of the present invention was performed using […]. The compound was suspended in propylene glycol. The resulting suspension was medicated respectively on 5 female rats and 5 male rats(SD) of which age are 5 weeks, via oral after 12 hour starvation. The general symtoms, weight change and lethal case of the above rats were investigated. In cases of tests of the compound Nos. 25, 62, 63 and 85 (delivery of 2,000 mg/kg), the general symtom and weight change were normal and the lethal case was not observed. […] The toxicity data on the compound Nos. 25, 62, 63 and 85 are described in the following Table 5. In light forgoings, the compounds of the present invention are safe in toxicity and have the excellent lethal effect and growth-inhibition effect against fungus.

rats = assay: acute oral toxicity; conditions: rat, in vivo
Method: as §1

salmonella typhimurium = assay: bacterial reverse mutation test (Ames test); assay type: cell-based
[3] = tested on: cultured lung cells derived from chinese hamster; assay type: cell-based
male ICR mice = conditions: mouse, in vivo

Structure (SMILES)	MIC (C. albicans ATCC 10231)	MIC (C. albicans ATCC 28838)	MIC (C. albicans ATCC 11651)	MIC (C. albicans KCTC 1940)	MIC (C. albicans U.K.)	MIC (C. albicans OY 019)	MIC (C. albicans OY 003)	MIC (C. albicans IFO 1385)	MIC (C. parapsilosis)	MIC (C. glabrata)	MIC (C. glulliermendi)	MIC (C. krusei)	MIC (E. floccosum)	Efficacy (%) 0 day later (Epidermophyton floccosum)	Efficacy (%) 1 day later (Epidermophyton floccosum)	Efficacy (%) 2 day later (Epidermophyton floccosum)	Efficacy (%) 3 day later (Epidermophyton floccosum)	Efficacy (%) 4 day later (Epidermophyton floccosum)	Efficacy (%) 5 day later (Epidermophyton floccosum)	Efficacy (%) 6 day later (Epidermophyton floccosum)	further results
COc1ccc2cc3[n+](cc2c1OC)CCc1cc2c(cc1-3)OCO2 [Berberine chloride]	–	–	–	–	–	–	–	–	–	–	–	–	–	–	–	–	–	–	–	–	antibacterial activity ([1]; Ukita et al. 1949): exhibits antibacterial activity
COc1ccc2cc3[n+](cc2c1OC)CCc1cc2c(cc1-3)OCO2 [berberine sulfate]	–	–	–	–	–	–	–	–	–	–	–	–	–	–	–	–	–	–	–	–	concentration inhibiting the growth of fungi [2]: 10 to 25 mg/mL; effect in mice infected with Candida albicans (Candida albicans): effective; toxicity (human): exhibits intense toxicity
COc1ccc2c(Cc3ccc(C(C)(C)C)cc3)c3[n+](cc2c1OC)CCc1cc2c(cc1-3)OCO2 [compound 62, 13-(4-t-butylbenzyl)berberine chloride]	6.25 µg/mL	0.78 µg/mL	0.78 µg/mL	0.78 µg/mL	6.25 µg/mL	0.78 µg/mL	0.78 µg/mL	6.25 µg/mL	> 100 µg/mL	> 100 µg/mL	12.5 µg/mL	3.12 µg/mL	12.5 µg/mL	0%	40.0%	55.4%	69.4%	72.6%	76.3%	79.2%	Efficacy (%) 7 day later (Epidermophyton floccosum): 85.4%; remedial effect (fungal infection of foot; in 8 of 10 male patients): more than 98%; patients exhibiting remedial effect more than 98% (fungal infection of foot; of 10 male patients): 8 Patients; LD50 (acute oral toxicity; female): > 2700 mg/kg; LD50 (acute oral toxicity; male): > 3700 mg/kg; lethal case (rats): not observed; AMES test (salmonella typhimurium): negative; chromosome abnormality test [3]: negative; nucleus test (micronucleous test) (male ICR mice): negative
COc1ccc2c(Cc3ccc(C(C)C)cc3)c3[n+](cc2c1OC)CCc1cc2c(cc1-3)OCO2 [compound 63, 13-(4-i-propylbenzyl)berberine chloride]	6.25 µg/mL	0.78 µg/mL	0.78 µg/mL	1.56 µg/mL	6.25 µg/mL	1.56 µg/mL	6.25 µg/mL	6.25 µg/mL	> 100 µg/mL	> 100 µg/mL	12.5 µg/mL	3.12 µg/mL	12.5 µg/mL	0%	42.5%	52.5%	59.8%	64.6%	73.6%	75.6%	Efficacy (%) 7 day later (Epidermophyton floccosum): 80.2%; LD50 (acute oral toxicity; female): > 2000 mg/kg; LD50 (acute oral toxicity; male): > 2500 mg/kg; lethal case (rats): not observed; AMES test (salmonella typhimurium): negative; chromosome abnormality test [3]: negative; nucleus test (micronucleous test) (male ICR mice): negative
CCCOc1cc2c(cc1OCCC)-c1cc3ccc(OCCC)c(OCCC)c3c[n+]1CC2 [compound 85, 2,3,9,10-tetrapropoxy protoberberine iodide]	6.25 µg/mL	0.78 µg/mL	0.4 µg/mL	0.4 µg/mL	50 µg/mL	0.4 µg/mL	0.4 µg/mL	6.25 µg/mL	12.5 µg/mL	> 100 µg/mL	> 100 µg/mL	1.56 µg/mL	> 100 µg/mL	0%	34.5%	38.8%	42.5%	54.6%	63.2%	68.0%	Efficacy (%) 7 day later (Epidermophyton floccosum): 70.5%; LD50 (acute oral toxicity; female): > 5000 mg/kg; LD50 (acute oral toxicity; male): > 5000 mg/kg; lethal case (rats): not observed; AMES test (salmonella typhimurium): negative; chromosome abnormality test [3]: negative; nucleus test (micronucleous test) (male ICR mice): negative
COc1ccc2c(c1OC)CN1CCc3cc4c(cc3C1C2)OCO4 (stereo not shown) [tetrahydroberberine]	–	–	–	–	–	–	–	–	–	–	–	–	–	–	–	–	–	–	–	–	antibacterial effect of derivatives without quaternary ammonium salt ([1]; Pitea et al. 1972): exhibits less effect
